Here are results for 1 compound from ChEMBL document CHEMBL4627357, “An osteoinductive effect of phytol on mouse mesenchymal stem cells (C3H10T1/2) towards osteoblasts” (Bioorg Med Chem Lett, 2020).

Activity calls are given as the source filed them. The rule behind the calls is not given here.

The test system of data set [1] is C3H 10T1/2. As to the kind of experiment: Upregulation of Runx2 mRNA expression in mouse C3H10T1/2 at 40 uM measured after 72 hrs by SYBR green based RT-qPCR analysis. The data set is classed as functional, cell-based.
In data set [2] the test system is C3H 10T1/2. As to the kind of experiment: Cytotoxicity against mouse C3H10T1/2 cells assessed as spindle shaped and flattened appearance at 40 uM measured after 72 hrs by FDA staining based assay. It is filed as cell-based. The settings on record: c3h 10t1/2, 72 h.
Data set [3] in a line: Cytotoxicity against mouse C3H10T1/2 cells assessed as live cells at 40 uM measured after 72 hrs by MUSE cell analyzer (reference value: 95.8%). The data set is classed as cell-based, C3H 10T1/2. The settings on record: read-out: Activity.
The subject of data set [4] is C3H 10T1/2. As to the kind of experiment: Cytotoxicity against mouse C3H10T1/2 cells assessed as dead cells at 40 uM measured after 72 hrs by MUSE cell analyzer (reference value: 4.2%). Conditions: c3h 10t1/2, 72 h. It is filed as cell-based.
Data set [5] relates to C3H 10T1/2. As to the kind of experiment: Induction of osteoblast differentiation in mouse C3H10T1/2 cells assessed as increase in calcium deposition at 40 uM measured after 14 days by alizarin red staining based assay. It is filed as functional, cell-based.
For data set [6], the system named is C3H 10T1/2. As to the kind of experiment: Induction of osteoblast differentiation in mouse C3H10T1/2 cells assessed as formation of mineralized nodule at 40 uM measured after 14 days by von-Kossa staining based assay. It is filed as functional, cell-based.
The subject of data set [7] is C3H 10T1/2. The experiment in a line: Induction of osteoblast differentiation in mouse C3H10T1/2 cells assessed as increase in Runx2 mRNA expression at 40 uM measured after 3 to 7 days by RT-qPCR analysis. The data set is classed as functional, cell-based. In general terms: Real-time PCR tracks product formation cycle by cycle.
In data set [8] the test system is C3H 10T1/2. As to the kind of experiment: Induction of osteoblast differentiation in mouse C3H10T1/2 cells assessed as increase in ALP mRNA expression at 40 uM measured after 3 days by RT-qPCR analysis. The data set is classed as functional, cell-based.
Data set [9] deals with C3H 10T1/2. As to the kind of experiment: Induction of osteoblast differentiation in mouse C3H10T1/2 cells assessed as increase in type-1 collagen mRNA expression at 40 uM measured after 3 days by RT-qPCR analysis. The data set is classed as functional, cell-based.
Data set [10] concerns C3H 10T1/2. As to the kind of experiment: Induction of osteoblast differentiation in mouse C3H10T1/2 cells assessed as increase in osteocalcin mRNA expression at 40 uM measured after 3 to 7 days by RT-qPCR analysis. The data set is classed as functional, cell-based.
The subject of data set [11] is C3H 10T1/2. As to the kind of experiment: Induction of osteoblast differentiation in mouse C3H10T1/2 cells assessed as increase in osterix mRNA expression at 40 uM measured after 3 to 7 days by RT-qPCR analysis. It is filed as functional, cell-based.
Data set [12] deals with C3H 10T1/2. The experiment in a line: Induction of osteoblast differentiation in mouse C3H10T1/2 cells assessed as increase in ALP mRNA expression at 40 uM measured after 7 days by RT-qPCR analysis. It is filed as functional, cell-based.
In data set [13] the test system is C3H 10T1/2. The experiment in a line: Induction of osteoblast differentiation in mouse C3H10T1/2 cells assessed as increase in type-1 collagen mRNA expression at 40 uM measured after 7 days by RT-qPCR analysis. It is filed as functional, cell-based.
For data set [14], the system named is C3H 10T1/2. As to the kind of experiment: Induction of osteoblast differentiation in mouse C3H10T1/2 cells assessed as upregulation of miRNA-21a mRNA expression at 40 uM measured after 7 days by RT-qPCR analysis. The data set is classed as functional, cell-based.
For data set [15], the system named is C3H 10T1/2. As to the kind of experiment: Induction of osteoblast differentiation in mouse C3H10T1/2 cells assessed as upregulation in Runx2 protein expression at 40 uM measured after 7 days by Western blot analysis. It is filed as functional, cell-based. (In general: In western blotting, separated proteins are transferred to a membrane and probed.)
The subject of data set [16] is C3H 10T1/2. As to the kind of experiment: Induction of osteoblast differentiation in mouse C3H10T1/2 cells assessed as downregulation of Smad7 protein expression at 40 uM measured after 7 days by Western blot analysis. The data set is classed as functional, cell-based.

On to `C/C(=C\CO)CCC[C@H](C)CCC[C@H](C)CCCC(C)C` [TRANS-PHYTOL], for which the result in data set [1], in data set [5], in data set [6], in data set [7], in data set [12] and in data set [13] was Active. In addition, the result in [14], in data set [15] and in [16] was Active. The Activity entry in data set [2] is “Non-Toxic”; in data set [4] it was 4%. Moreover, the viability at 72 h, 40 µM in data set [3] amounted to 96%. For the same compound, the outcome in data set [8], in data set [9], in data set [10] and in data set [11] was inactive.
